Data on one compound can be found in article PMC4013371 (The Journal of Veterinary Medical Science, 2013).

Data set [1] can be described thus: Adverse effects during multiple CLM treatment. Format: in vivo, healthy beagles (dogs). The conditions noted are these: CLM about 10 mg/kg PO twice daily for ten days; three healthy beagles.
For data set [2] the following is noted: CLM 10 mg/kg PO, healthy beagles, not steady state; cited from earlier work.

For the compound `CC[C@H]1OC(=O)[C@H](C)[C@@H](O[C@H]2C[C@@](C)(OC)[C@@H](O)[C@H](C)O2)[C@H](C)[C@@H](O[C@@H]2O[C@H](C)C[C@H](N(C)C)[C@H]2O)[C@](C)(OC)C[C@@H](C)C(=O)[C@H](C)[C@@H](O)[C@]1(C)O` [CLM, Clarithromycin], in data set [1], the “adverse effects associated with CLM, such as gastrointestinal irritation” value was “no adverse effects”. Moreover, the serum concentrations entry in data set [2] is “approximately 3 µg/ml”.
